Assay results reported in patent US20260317319A1, “NOVEL ERGOLINES AND METHODS OF TREATING MOOD DISORDERS” (Gilgamesh Pharma Inc., priority 2023, published 2026).

How the values were obtained:
[1] = biological target: T1, Alpha1A adrenergic receptor (Homo sapiens, UniProt P35348); experiment: Ca2+ flux functional assay at Alpha1A; format: cell-based; conditions: for maximal efficacy at Alpha1A: "higher" is compared to the N-methyl compound LSD; for Emax: agonist, Ca2+ flux, max dose, read-out: Alpha 1A % Act @ Max Dose
T1 construct: expressed in transfected cells
T1 sequence (P35348 1-466): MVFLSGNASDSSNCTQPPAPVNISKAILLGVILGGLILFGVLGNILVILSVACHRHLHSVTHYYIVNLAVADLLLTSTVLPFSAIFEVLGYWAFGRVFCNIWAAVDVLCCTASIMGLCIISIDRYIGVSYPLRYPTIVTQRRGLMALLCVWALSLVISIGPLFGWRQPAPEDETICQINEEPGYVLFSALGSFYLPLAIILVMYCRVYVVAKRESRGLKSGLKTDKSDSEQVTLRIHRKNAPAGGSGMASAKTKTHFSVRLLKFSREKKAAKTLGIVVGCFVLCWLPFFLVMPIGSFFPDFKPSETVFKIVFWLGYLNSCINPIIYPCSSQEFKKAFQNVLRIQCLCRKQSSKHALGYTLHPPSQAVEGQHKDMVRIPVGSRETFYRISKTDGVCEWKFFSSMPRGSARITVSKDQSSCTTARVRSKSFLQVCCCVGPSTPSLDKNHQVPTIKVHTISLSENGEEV
Protocol: (§1) Disclosed compounds were tested for agonist activity at several adrenergic (Alpha1A and Alpha2A) and dopamine (D1 and D2) receptor subtypes using Ca^2+ flux functional assays, with the results summarized in Table 6. Selectivity for the 5-HT2A receptor over these other targets varied depending on the specific target and compound.
(§2) Functional Assays at Adrenergic and Dopamine Receptors. Agonist activity at Alpha1A, Alpha2A, D1, and D2 receptors was determined using a FLIPR Ca^2+ flux assay at WuXi AppTec (Hong Kong) Limited according to their standard protocols. Briefly, stably transfected cells expressing the receptor of interest were grown and plated in a 384 well plate and incubated at 37° C. and 5% CO2 overnight. A solution of 250 mM probenecid in 1 mL FLIPR assay buffer was prepared fresh. This was combined with a fluorescent dye (Fluo-4 Direct™) to make a final assay concentration of 2.5 mM. Compounds were diluted 1:3.16 for 10 points and 750 nL was added to a 384 well compound plate using ECHO along with 30 μL assay buffer. The fluorescent dye was then added to the assay plate along with assay buffer to a final volume of 40 μL. The cell plate was incubated for 50 min at 37° C. and 5% CO2 and placed into the FLIPR Tetra along with the compound plate. 10 μL of references and compounds were then transferred from the compound plate into the cell plate and the fluorescent signal was read.

[2] = biological target: T2, Alpha2A adrenergic receptor (Homo sapiens, UniProt P08913); experiment: Ca2+ flux functional assay at Alpha2A; format: cell-based; conditions: for maximal efficacy at Alpha2A: "higher" is compared to the N-methyl compound LSD; for Emax: agonist, Ca2+ flux, max dose, read-out: Alpha 2A % Act @ Max Dose
T2 construct: expressed in transfected cells
T2 sequence (P08913 1-465): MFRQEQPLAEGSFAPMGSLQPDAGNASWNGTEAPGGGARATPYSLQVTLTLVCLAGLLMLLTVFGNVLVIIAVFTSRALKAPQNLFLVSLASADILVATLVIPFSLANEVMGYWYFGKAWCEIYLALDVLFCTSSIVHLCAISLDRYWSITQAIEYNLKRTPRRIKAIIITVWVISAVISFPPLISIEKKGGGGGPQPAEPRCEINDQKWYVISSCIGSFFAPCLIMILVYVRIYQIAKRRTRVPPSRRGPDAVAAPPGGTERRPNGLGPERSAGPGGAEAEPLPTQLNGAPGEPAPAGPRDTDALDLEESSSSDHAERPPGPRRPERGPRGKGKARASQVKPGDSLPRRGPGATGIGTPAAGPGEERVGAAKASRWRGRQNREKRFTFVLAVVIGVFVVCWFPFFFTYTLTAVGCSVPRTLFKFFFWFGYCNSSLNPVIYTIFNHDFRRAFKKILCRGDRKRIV
Protocol: as §2, with “Compounds were diluted 1:3.16 for 10 points and 750 nL was added to a 384 well compound plate using ECHO along with 30 μL assay buffer.” left out

D2 dopamine receptor = biological target: T3, D2 dopamine receptor (Homo sapiens, UniProt P14416); experiment: Ca2+ flux functional assay at D2; format: cell-based; conditions: for Emax: agonist, Ca2+ flux, max dose, read-out: D2 % Act @ Max Dose; for maximal efficacy at D2: compared to the N-methyl compound LSD
T3 construct: expressed in transfected cells
Protocol: as §1, §2

C57BL/6 mice = experiment: Automated mouse head twitch response (HTR) assay (video tracking); format: in vivo; conditions: for # HTR/20 min at Most Efficacious Dose / Most Efficacious Dose for Peak HTR/min / Most Efficacious Dose for # HTR/20 min / Peak HTR/min at Most Efficacious Dose: sc
Protocol: Disclosed compounds were tested for their ability to induce a head twitch response (HTR) in mice using an automated video tracking procedure, with the results summarized in Table 8 and FIG. 4.
Animals. Adult male C57BL/6 mice aged 8-10 weeks (Jackson Labs, Bar Harbor, ME; body weight 18-25 g) were used in this experiment. Animals were group housed under environmentally controlled temperatures and 12-hour light/dark cycles (lights on between 06:00-18:00 h), with ad libitum food and water. Mice were habituated to the facility for at least 5 days prior to testing. All animal procedures were approved by the local IACUC and conducted in accordance with the NIH Guide for the Care and Use of Laboratory Animals.
Procedure. Mice were administered one dose of the drug and immediately placed into a small open field for behavioral observation. High-speed video of animals' behavior was captured continuously for 20 min. Video recordings were imported into an image processing software, which detects multiple points of interest on each animal's body, including the left and right ear. HTR events were defined as periodic deviations of ear locations from temporally averaged ear locations. Predefined thresholds for magnitude and frequency of location deviations were used to filter HTR events from random head movements. The method was validated by comparing detected events with manual (human) observations and found to have an accuracy >95%. The total number of HTR events counted during the 20-min recording and the rate in HTR/min calculated over 2-min bins were determined for each animal at each dose.
Statistical Analysis. The data points shown are the mean±standard error of the mean (SEM).

[3] = 20 min recording, mean, at each compound's most efficacious dose (35*, 43*, 44*: suppressed below vehicle 14.5, dose is that of least suppression)
[4] = dose giving highest peak HTR/min (35*, 43*, 44*: dose that resulted in the least suppression)
[5] = dose giving most HTR/20 min (35*, 43*, 44*: dose that resulted in the least suppression)
[6] = rate over 2-min bins, mean, at each compound's most efficacious dose (35*, 43*, 44*: suppressed below vehicle 1.62, dose is that of least suppression)

T3 sequence (P14416 whole entry): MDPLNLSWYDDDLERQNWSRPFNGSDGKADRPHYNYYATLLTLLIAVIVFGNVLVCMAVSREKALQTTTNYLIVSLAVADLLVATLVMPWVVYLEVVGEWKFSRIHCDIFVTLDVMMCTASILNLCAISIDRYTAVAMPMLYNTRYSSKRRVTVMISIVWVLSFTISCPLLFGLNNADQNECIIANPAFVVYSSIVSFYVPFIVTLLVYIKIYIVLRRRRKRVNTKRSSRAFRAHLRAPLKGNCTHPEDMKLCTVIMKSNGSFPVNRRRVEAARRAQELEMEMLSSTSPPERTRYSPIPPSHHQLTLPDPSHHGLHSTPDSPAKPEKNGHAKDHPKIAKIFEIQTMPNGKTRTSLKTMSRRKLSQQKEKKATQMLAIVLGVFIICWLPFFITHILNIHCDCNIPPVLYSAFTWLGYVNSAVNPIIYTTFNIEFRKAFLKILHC

SMILES | maximal efficacy at Alpha1A [1] | Emax [1] [%] | maximal efficacy at Alpha2A [2] | Emax (D2 dopamine receptor) [%] | maximal efficacy at D2 (D2 dopamine receptor) | # HTR/20 min at Most Efficacious Dose (C57BL/6 mice; [3]) [HTR/20 min] | Most Efficacious Dose for Peak HTR/min (C57BL/6 mice; [4]) | Most Efficacious Dose for # HTR/20 min (C57BL/6 mice; [5]) | Peak HTR/min at Most Efficacious Dose (C57BL/6 mice; [6]) [HTR/min] | also measured
CCN(CC)C(=O)[C@@H]1C=C2c3cccc4[nH]cc(c34)C[C@H]2N(CCCF)C1 [Compound 2, (6aR,9R)—N,N-diethyl-7-(3-fluoropropyl)-4,6,6a,7,8,9-hexahydroindolo[4,3-fg]quinoline-9-carboxamide] | substantially higher maximal efficacy | 110 | substantially higher maximal efficacy | 91.2 | substantially higher maximal efficacy |  |  |  |  | Emax [2]: 65%
CCCN1C[C@H](C(=O)N[C@H](C)CC)C=C2c3cccc4[nH]cc(c34)C[C@H]21 [Compound 3, (6aR,9R)—N—((R)-sec-butyl)-7-propyl-4,6,6a,7,8,9-hexahydroindolo[4,3-fg]quinoline-9-carboxamide] | substantially higher maximal efficacy | 125 | substantially higher maximal efficacy | 117 | substantially higher maximal efficacy |  |  |  |  | Emax [2]: 96.8%
CCCN1C[C@H](C(=O)N2[C@@H](C)C[C@@H]2C)C=C2c3cccc4[nH]cc(c34)C[C@H]21 [Compound 4, ((2S,4S)-2,4-dimethylazetidin-1-yl)((6aR,9R)-7-propyl-4,6,6a,7,8,9-hexahydroindolo[4,3-fg]quinolin-9-yl)methanone] | substantially higher maximal efficacy | 119 | substantially higher maximal efficacy | 117 | substantially higher maximal efficacy |  |  |  |  | Emax [2]: 103%
CCCN1C[C@H](C(=O)NC(CC)CC)C=C2c3cccc4[nH]cc(c34)C[C@H]21 [Compound 6, (6aR,9R)—N-(pentan-3-yl)-7-propyl-4,6,6a,7,8,9-hexahydroindolo[4,3-fg]quinoline-9-carboxamide] | substantially higher maximal efficacy |  | substantially higher maximal efficacy | 91.7 | substantially higher maximal efficacy |  |  |  |  | 
C=CCN1C[C@H](C(=O)N[C@H](C)CC)C=C2c3cccc4[nH]cc(c34)C[C@H]21 [Compound 8, (6aR,9R)-7-allyl-N—((R)-sec-butyl)-4,6,6a,7,8,9-hexahydroindolo[4,3-fg]quinoline-9-carboxamide] |  |  |  |  |  | 21.375 | (3.2) mg/kg, sc | (1) mg/kg, sc | 2.14 | 
CCN(CC)C(=O)[C@@H]1C=C2c3cccc4[nH]cc(c34)C[C@H]2N(CCc2ccccc2OC)C1 [Compound 11, (6aR,9R)—N,N-diethyl-7-(2-methoxyphenethyl)-4,6,6,7,8,9-hexahydroindolo[4,3-fg]quinoline-9-carboxamide] | very low efficacy agonists |  | very low efficacy agonists |  |  |  |  |  |  | 
CCN(CC)C(=O)[C@@H]1C=C2c3cccc4[nH]cc(c34)C[C@H]2N(Cc2cccc(OC)c2)C1 [Compound 18, (6aR,9R)—N,N-diethyl-7-(3-methoxybenzyl)-4,6,6a,7,8,9-hexahydroindolo[4,3-fg]quinoline-9-carboxamide] |  |  |  |  |  | 7.62 | (0.1) mg/kg, sc | (3.2) mg/kg, sc | 1.12 | 
CCN(CC)C(=O)[C@@H]1C=C2c3cccc4[nH]cc(c34)C[C@H]2N(Cc2ccc(OC)cc2)C1 [Compound 19, (6aR,9R)—N,N-diethyl-7-(4-methoxybenzyl)-4,6,6a,7,8,9-hexahydroindolo[4,3-fg]quinoline-9-carboxamide] |  |  |  |  |  | 9.50 | (1) mg/kg, sc | (10) mg/kg, sc | 1.31 | 
CCN(CC)C(=O)[C@@H]1C=C2c3cccc4[nH]cc(c34)C[C@H]2N(Cc2ccccc2)C1 [Compound 82, (6aR,9R)-7-benzyl-N,N-diethyl-4,6,6a,7,8,9-hexahydroindolo[4,3-fg]quinoline-9-carboxamide] |  |  |  |  |  | 11.25 | (0.1) mg/kg, sc | (0.1) mg/kg, sc | 0.56 | 
CCN(C)C(=O)[C@@H]1C=C2c3cccc4[nH]cc(c34)C[C@H]2N(Cc2ccccc2)C1 [Compound 85, (6aR,9R)-7-benzyl-N-ethyl-N-methyl-4,6,6a,7,8,9-hexahydroindolo[4,3-fg]quinoline-9-carboxamide] |  |  |  |  |  | 6.625 | (0.32) mg/kg, sc | (0.32) mg/kg, sc | 0.33 | 
CC[C@@H](C)NC(=O)[C@@H]1C=C2c3cccc4[nH]cc(c34)C[C@H]2N(C)C1 [Int8] |  |  |  |  |  | 23.625 | (0.32) mg/kg, sc | (0.32) mg/kg, sc | 2.06 | 
CCN(CC)C(=O)[C@@H]1C=C2c3cccc4[nH]cc(c34)C[C@H]2N(C)C1 [LSD, lysergic acid diethylamide, reference compound] |  | 60.3 |  | 78.3 |  |  |  |  |  | head twitch response, automated (C57BL/6 mice; in vivo): potent and robust increase in HTRs; # HTR/20 min at Most Efficacious Dose (C57BL/6 mice; in vivo): 44.62 HTR/20 min; Most Efficacious Dose for # HTR/20 min (C57BL/6 mice; in vivo): (0.1) mg/kg, sc; Most Efficacious Dose for Peak HTR/min (C57BL/6 mice; in vivo): (0.032) mg/kg, sc; Peak HTR/min at Most Efficacious Dose (C57BL/6 mice; in vivo): 4.13 HTR/min
